Each block holds one compound with its values, some of them ahead of it.
What was measured:
[1] = biological target: T1, Bh0493, uronate isomerase from Bacillus halodurans (Halalkalibacterium halodurans, UniProt Q9KFI6); experiment: X-ray crystal structure, […] Å; type: binding; conditions: Zn2+, active site; 40 mM ligand; pH 6.0
T1 sequence (Q9KFI6 1-427): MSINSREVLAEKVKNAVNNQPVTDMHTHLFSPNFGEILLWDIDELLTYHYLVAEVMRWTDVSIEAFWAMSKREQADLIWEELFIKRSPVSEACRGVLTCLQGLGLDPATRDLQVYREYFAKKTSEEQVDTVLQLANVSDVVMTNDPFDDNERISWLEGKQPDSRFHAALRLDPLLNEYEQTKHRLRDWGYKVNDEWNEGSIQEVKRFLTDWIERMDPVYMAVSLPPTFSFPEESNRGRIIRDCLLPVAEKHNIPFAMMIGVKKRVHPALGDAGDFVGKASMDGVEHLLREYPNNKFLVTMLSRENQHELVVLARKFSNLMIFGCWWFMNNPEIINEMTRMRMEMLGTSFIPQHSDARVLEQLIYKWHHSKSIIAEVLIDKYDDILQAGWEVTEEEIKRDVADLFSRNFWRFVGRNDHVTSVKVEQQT

[2] = biological target: T1, Bh0493, uronate isomerase from Bacillus halodurans; experiment: X-ray crystal structure, […] Å; type: binding; conditions: Zn2+, active site; 40 mM ligand; pH 8.5 (form 1), pH 6.0 (form 2)
[3] = biological target: T2, uronate isomerase (URI) from E. coli (Escherichia coli, UniProt P0A8G3); experiment: inhibition kinetics, slope inhibition constant; type: biochemical
T2 sequence (P0A8G3 1-470): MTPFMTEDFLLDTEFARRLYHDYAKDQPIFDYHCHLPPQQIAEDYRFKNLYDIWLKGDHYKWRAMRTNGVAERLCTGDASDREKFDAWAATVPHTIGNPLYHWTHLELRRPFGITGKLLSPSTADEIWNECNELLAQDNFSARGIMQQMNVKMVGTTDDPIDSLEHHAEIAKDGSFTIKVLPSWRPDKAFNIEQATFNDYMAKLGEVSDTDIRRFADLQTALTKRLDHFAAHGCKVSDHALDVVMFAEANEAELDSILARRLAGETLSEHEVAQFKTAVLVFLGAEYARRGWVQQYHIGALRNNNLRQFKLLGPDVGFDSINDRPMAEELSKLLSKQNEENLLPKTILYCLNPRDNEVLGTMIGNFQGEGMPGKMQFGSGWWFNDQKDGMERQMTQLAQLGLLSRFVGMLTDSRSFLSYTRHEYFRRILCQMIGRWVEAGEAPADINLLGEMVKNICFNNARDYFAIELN

[4] = biological target: T1, Bh0493, uronate isomerase from Bacillus halodurans; experiment: inhibition kinetics, slope inhibition constant; type: biochemical

SMILES: O=C(O)[C@H]1OC(O)[C@H](O)[C@@H](O)[C@@H]1O (stereo partly drawn) [I, D-glucuronate]
X-ray crystal structure, 2.1 Å [1]: In the complex with D-glucuronate, the substrate is bound in the open chain configuration.

SMILES: O=C(O)[C@@H](O)C(O)[C@H](O)C(=O)O [III, D-arabinarate]
X-ray crystal structure, 2.2 Å (two crystal forms) [2]: two inhibitors that mimic the proposed cis-enediol(ate) intermediate, D-arabinarate (III) and its hydroxamate derivative (II)

Ki [3]: 45 ± 4 µM
Ki [4]: 24 ± 2 µM
SMILES: O=C(O)[C@H]1OC[C@H](O)[C@@H](O)[C@@H]1O [IV, 2,6-Anhydro-L-gulonic acid]

From paper PMC2773443 (Biochemistry, 2009)
